Marks after values point to notes of the source that are not given here.
Assays:
[1] = Minimal neurotoxicity (TOX), rotorod test, mice i.p.; format: in vivo; settings: for TOX, number of animals exhibiting toxic effects/total number tested: mice i.p.
Description: The fluoro derivatives synthesized were submitted to the National Institute of Neurological Disorders and Stroke (NINDS) for evaluation in a standard panel of assays. Two convulsant tests (MES and scMET), and a toxicity screen (rotorod in mice, positional sense and gait in rats) were employed for evaluating the compounds activity as neuroprotecting agents. These testing procedures are described in detail in Molecular and Cellular Targets for Anti-epileptic Drugs, eds. […] The felbamate derivatives were evaluated for anticonvulsant activity following intraperitoneal (i.p.) administration in mice and oral administration in rats. […]

[2] = tested on: MES-induced seizure spread; assay: Maximal electroshock seizure (MES) test, rats p.o.; format: in vivo; settings: for anti-seizure activity in rats (in words): rat models; for MES, number of animals protected/total number tested: rat p.o.
Description: (§1) The fluoro derivatives synthesized were submitted to the National Institute of Neurological Disorders and Stroke (NINDS) for evaluation in a standard panel of assays. Two convulsant tests (MES and scMET), and a toxicity screen (rotorod in mice, positional sense and gait in rats) were employed for evaluating the compounds activity as neuroprotecting agents. These testing procedures are described in detail in Molecular and Cellular Targets for Anti-epileptic Drugs, eds. G. Avanzini, G. Regesta, P. Tanganelli, M. Avoli, 1997, John Libbey & Company Ltd, pp 191-198. The felbamate derivatives were evaluated for anticonvulsant activity following intraperitoneal (i.p.) administration in mice and oral administration in rats.
(§2) The Maximal Electroshock Seizure (MES)
(§3) The MES test is a model for generalized tonic-clonic seizures and is used to identify compounds which prevent seizure spread. The behavioral and electrographic seizures generated in this model are consistent with the human disorder. In the MES test, an electrical stimulus of 0.2 s in duration (50 mA in mice and 150 mA in rat at 60 Hz) was delivered via corneal electrodes primed with an electrolyte solution containing an anesthetic agent. Mice were tested at 30 minutes and 4 hours following doses of 30, 100 and 300 mg/kg of test compound. Rats were tested at time intervals between 0.25 and 4 hours following a standard oral dose of 30 mg/kg. Abolition of the hindlimb tonic extensor component indicates the test compound's ability to inhibit MES-induced seizure spread.
(§4) For the MES and scMET tests the data is presented in the form of the number of animals protected by the administered compound/total number of animals tested. […] Qualitative data was obtained for fluoro felbamate 12 (Tables 1 and 2A), fluoro monocarbamate felbamate 13 (Tables 1 and 2B), and fluorodioxo 16 (Tables 1 and 2C) and for cyclic felbamate 21 (Tables 5 and 6B) and cyclic monocarbamate 22 (Tables 5 and 6A). More extensive quantitative data was also obtained for fluoro felbamate 12 in mice (Table 3) and rats (Table 4).

[3] = tested on: MES-induced seizure spread; assay: Maximal electroshock seizure (MES) test, mice i.p.; format: in vivo; settings: for MES, number of animals protected/total number tested: mice i.p.
Description: as §1, §2, §3, §4

[4] = Minimal neurotoxicity (TOX), positional sense and gait and stance tests, rats p.o.; format: in vivo; settings: for TOX, number of animals exhibiting toxic effects/total number tested: rat p.o., 30 mg/kg
Description: The fluoro derivatives synthesized were submitted to the National Institute of Neurological Disorders and Stroke (NINDS) for evaluation in a standard panel of assays. Two convulsant tests (MES and scMET), and a toxicity screen (rotorod in mice, positional sense and gait in rats) were employed for evaluating the compounds activity as neuroprotecting agents. These testing procedures are described in detail in Molecular and Cellular Targets for Anti-epileptic Drugs, eds. […] The felbamate derivatives were evaluated for anticonvulsant activity following intraperitoneal (i.p.) administration in mice and oral administration in rats.
Rats are examined for behavioral toxicity by the positional sense test and a gait and stance test. […] In the gait and stance test, neurotoxicity is indicated by a circular or zigzag gait, ataxia, abnormal spread of the legs, abnormal posture, tremor hyperactivity, lack of exploratory behavior, somnolence, stupor or catalepsy. […]

[5] = human; cited from earlier work
[6] = Toxicity, oral administration to mice; format: in vivo; settings: doses up to 218 mg/kg
Description: Toxicity induced by a compound is detected in mice using the standardized rotorod test described by Dunham & Miya (1957). Untreated control mice, when placed on a 6 r.p.m. rotation rod, can maintain their equilibrium for a prolonged period of time.
Toxicity across time doe not occur until dosages of 300 mg/kg. […] Quantitative results obtained for fluoro felbamate 12 in mice indicated a MES ED50 of approximately 20 mg/kg with a safety ratio of at least five (see Table 3). Results obtained for oral administration of fluoro felbamate 12 to rats indicated a MES ED50 of about 3 mg/kg with no toxicity at doses up to 500 mg/kg.

[7] = tested on: focal seizures of hippocampal kindled rats; assay: Hippocampal kindling model (kindled rats), i.p.; format: in vivo, Sprague-Dawley rats; settings: 100 mg/kg
Description: The Hippocampal Kindling Model
The hippocampal kindling model can be used to evaluate a compound's ability to affect both the expression and acquisition of focal seizures. The hippocampal kindling paradigm as described by Lothman and Williamson (Lothman, 1994) allows the temporal effects of a drug to be evaluated in a single animal. This procedure requires the surgical placement of bipolar electrodes in the ventral hippocampus of adult male Sprague-Dawley rats. Stage five behavioral seizures are produced by using a stimulus consisting of a 50 Hz, 10 s train of 1 ms biphasic 200 uA pulses delivered every 30 min for 6 hours (12 stimuli per day) on alternating days for a total of 60 stimulations (five stimulus days). Prior to evaluating a candidate's anticonvulsant activity, a drug free control period consisting of supramaximal stimulations are recorded to verify the stability of a stage five generalized seizure.
A single dose of the candidate compound is then administered intraperitoneally (i.p.), 15 min following the last control stimulation. The anticonvulsant activity of the drug is assessed every 30 min for three to four hours starting 15 min after administering the test material. After each stimulation, individual Racine seizure scores and afterdischarge durations are recorded. Rats are used again in drug trials after four to five drug- and stimulus-free days.

[8] = tested on: seizures; assay: NINDS anticonvulsant panel (MES, scMET), overall statements; format: in vivo; settings: for anti-seizure activity (in words): overall statement
Description: as §1, §4

[9] = tested on: pentylenetetrazol-induced clonic seizures; assay: Subcutaneous Metrazol seizure test (scMET), mice i.p.; format: in vivo
Description: as §1
The Subcutaneous (Metrazol) Seizure Test (scMET)
This is a model that primarily identifies compounds that raise seizure threshold. With some minor exceptions, the pharmacological profile of the scMET seizure model is consistent with the human condition. The scMET test utilizes a dose of pentylenetetrazol (85 mg/kg in Carworth Farms No. 1 mice and 70 mg/kg in Sprague-Dawley rats) that induces clonic seizures lasting for a period of at least five seconds in 97% (CD97) of animals tested. At the anticipated time of testing the convulsant is administered subcutaneously. The test compound is administered intraperitoneally in mice and orally in rats. Animals are observed over a 30 minute period. Absence of clonic spasms in the observed time period indicates a compound's ability to abolish the effect of pentylenetetrazol on seizure threshold.
as §4

| SMILES | TOX, number of animals exhibiting toxic effects/total number tested ([1]; 30 mg/kg, 0.5 h) | TOX, number of animals exhibiting toxic effects/total number tested ([1]; 30 mg/kg, 4.0 h) | TOX, number of animals exhibiting toxic effects/total number tested ([1]; 100 mg/kg, 0.5 h) | TOX, number of animals exhibiting toxic effects/total number tested ([1]; 100 mg/kg, 4.0 h) | TOX, number of animals exhibiting toxic effects/total number tested ([1]; 300 mg/kg, 0.5 h) | TOX, number of animals exhibiting toxic effects/total number tested ([1]; 300 mg/kg, 4.0 h) | anti-seizure activity in rats (in words) [2] | TOX, number of animals exhibiting toxic effects/total number tested ([4]; 0.25 h) | TOX, number of animals exhibiting toxic effects/total number tested ([4]; 0.5 h) | TOX, number of animals exhibiting toxic effects/total number tested ([4]; 1.0 h) | TOX, number of animals exhibiting toxic effects/total number tested ([4]; 2.0 h) | TOX, number of animals exhibiting toxic effects/total number tested ([4]; 4.0 h) | anti-seizure activity (in words) [8] | other results |
| --- | --- | --- | --- | --- | --- | --- | --- | --- | --- | --- | --- | --- | --- | --- |
| O=C1NC(=O)C(F)(c2ccccc2)CO1 (stereo not shown) [fluoro dioxo, 5-Fluoro-5-phenyl-1,3-oxazinane2,4-dione] | 0/4 | 0/2 | 0/8 | 0/4 | 1/4 | 0/2 | strong anti-seizure activity | 0/4 | 0/4 | 0/4 | 0/4 | 0/4 |  | anti-seizure activity in mice (in words) ([3]; mice, MES and scMET (Table 1)): inactive |
| NC(=O)CC(C(=O)O)c1ccccc1 (stereo not shown) [acid carbamate 4, 3-carbamoyl-2-phenylpropionic acid] |  |  |  |  |  |  |  |  |  |  |  |  |  | fraction of a felbamate dose found as acid carbamate [5]: ~12% |
| NC(=O)OCC(F)(COC(N)=O)c1ccccc1 [fluoro felbamate, 2-Fluoro-2-phenyl-1,3-propanediol dicarbamate] | 1/4 | 0/2 | 4/8 | 0/4 | 4/4 | 2/2 |  | 0/4 | 0/4 | 0/4 | 0/4 | 1/4 | show anti-seizure activity | toxicity [6]: no toxicity; TOX, number of animals exhibiting toxic effects/total number tested ([1]; 3 mg/kg, 0.5 h): 0/4; TOX, number of animals exhibiting toxic effects/total number tested ([1]; 3 mg/kg, 4.0 h): 0/4; TOX, number of animals exhibiting toxic effects/total number tested ([1]; 10 mg/kg, 0.5 h): 0/4; TOX, number of animals exhibiting toxic effects/total number tested ([1]; 10 mg/kg, 4.0 h): 0/4; safety ratio ([1]; mice, relative to MES ED50): at least five; effect on afterdischarge duration (in words) [7]: corresponding decrease in afterdischarge duration; effect on seizure score (in words) [7]: significant drop in seizure score; Number Protected / Number Tested ([7]; Dose Responses, i.p.): 7/8^a; MES ED50 ([2]; rat, p.o.): 3.0 mg/kg; MES protection (in words) ([2]; rats p.o., 30 mg/kg, over several timepoints): full protection; MES protection (in words) ([3]; mice, 30 mg/kg, at both 30 minutes and 4 hours): MES protective effects; toxicity ([4]; oral administration to rats, doses up to 500 mg/kg): no toxicity; activity relative to felbamate (times more active) ([8]; test not specified): 5-10 times |
| NC(=O)OCC(F)(CO)c1ccccc1 (stereo not shown) [fluoro monocarbamate felbamate, 2-Fluoro-2-phenyl-1,3-propanediol monocarbamate] | 0/4 | 0/2 | 3/8 | 0/4 | 2/4 | 0/2 |  | 0/4 | 0/4 | 0/4 | 0/4 | 0/4 | show anti-seizure activity | MES protection (in words) ([3]; mice, 100 mg/kg): moderate MES protection |
| NC(=O)OCC1(c2ccccc2)COC(=O)N1 (stereo not shown) [cyclic felbamate] | 0/4 | 0/2 | 0/8 | 0/4 | 0/4 | 0/2 | potent activity | 0/4 | 0/4 | 0/4 | 0/4 | 0/4 |  | MES, number of animals protected/total number tested ([2]; 30 mg/kg, 0.25 h): 2/4; MES, number of animals protected/total number tested ([2]; 30 mg/kg, 0.5 h): 2/4; MES, number of animals protected/total number tested ([2]; 30 mg/kg, 1.0 h): 3/4; MES, number of animals protected/total number tested ([2]; 30 mg/kg, 2.0 h): 0/4; MES, number of animals protected/total number tested ([2]; 30 mg/kg, 4.0 h): 3/4; MES, number of animals protected/total number tested ([3]; 30 mg/kg, 0.5 h): 0/1; MES, number of animals protected/total number tested ([3]; 30 mg/kg, 4.0 h): 0/1; MES, number of animals protected/total number tested ([3]; 100 mg/kg, 0.5 h): 0/3; MES, number of animals protected/total number tested ([3]; 100 mg/kg, 4.0 h): 0/3; MES, number of animals protected/total number tested ([3]; 300 mg/kg, 0.5 h): 0/1; MES, number of animals protected/total number tested ([3]; 300 mg/kg, 4.0 h): 0/1; ScMET, number of animals protected/total number tested ([9]; 30 mg/kg, 0.5 h): 0/1; ScMET, number of animals protected/total number tested ([9]; 30 mg/kg, 4.0 h): 0/1; ScMET, number of animals protected/total number tested ([9]; 100 mg/kg, 0.5 h): 0/1; ScMET, number of animals protected/total number tested ([9]; 100 mg/kg, 4.0 h): 0/1; ScMET, number of animals protected/total number tested ([9]; 300 mg/kg, 0.5 h): 0/1; ScMET, number of animals protected/total number tested ([9]; 300 mg/kg, 4.0 h): 0/1 |

Source: US20030166648A1, “Felbamate derived compounds” (priority 2002, published 2003)
